Key:
PDH = conditions: cited from earlier work
[1] = cited from earlier work

melting point [°C] | SMILES | also measured
138 to 140 | CC(C)(O)C(=O)Nc1ccc(Sc2ccc(NS(C)(=O)=O)cc2)cc1Cl | –
155.5 to 156.5 | CC(C)(O)C(=O)Nc1ccc(S(=O)(=O)c2ccccc2)cc1F | –
91 to 92.5 | CC(C)(O)C(=O)Nc1ccc(Sc2ccccc2)cc1F | –
118 to 120 | C[S+]([O-])c1ccccc1S(=O)(=O)c1ccc(NC(=O)[C@@](C)(O)C(F)(F)F)c(Cl)c1 (stereo partly shown) | –
68 to 70 | C[C@@](O)(C(=O)Nc1ccc(S(=O)(=O)c2ccccc2NCCO)cc1Cl)C(F)(F)F | –
205 to 207 | CC(=O)Nc1cc(S(=O)(=O)c2ccccc2)ccc1NC(=O)C(C)(O)C(F)(F)F (stereo not shown) | –
– | O=C(O)C(Cl)Cl [DCA, dichloroacetic acid] | activity of PDH (PDH; after acute administration in animals (Vary et al. 1988)): increases the activity of PDH; proportion of PDH in its active form (PDH; single administration, 150 mg/kg, intraperitoneally (Vary et al. 1988)): increased the proportion of PDH in its active form; glycaemia ([1]; Stacpoole et al. 1978): reducing glycaemia; plasma glucose ([1]; after repeated administration (Evans and Stacpoole 1982)): significant decrease in plasma glucose

From US6498275B1, “Use of compounds for the elevation of pyruvate dehydrogenase activity” (AstraZeneca AB, priority 1998, dated 2002)
